Patent US11213527B2, “Inhibitory effect of low molecular weight compound on cancer and fibrosis” (NATIONAL UNIVERSITY CORPORATION TOTTORI UNIVERSITY, priority 2014, dated 2022)

Assays:
[1] = tested on: CD44-positive HuH7 cells (cancer stem cells); assay: Inhibitory effect on cancer stem cells (FACS analysis, CD44); assay type: cell-based, human; settings: IC-2 50 μM, PN3-13 10 μM, 5-FU 0.5 μM, two days, vs DMSO control
Method: The following protocol was used to investigate an inhibitory effect of each low-molecular-weight compound on cancer stem cells. CD44, a cancer stem cell marker, was used as an index. HuH7 cells at 70 to 90% confluency were collected and 1.5×10^6 cells were seeded on a 10-cm dish (TPP Techno Plastic Products AG, Trasadingen, Switzerland). After 15 hours, the cells were treated with each of Hexachlorophene (15 μM), ICG-001 (15 μM), PKF118-310 (5 μM), IC-2 (50 μM), PN3-13 (10 μM), and 5-FU (0.5 μM) and were incubated at 37° C. DMSO, which was a solvent for each of the low-molecular-weight compounds and anti-cancer drugs, was used as a control. Two days after the chemical treatment, the cells on a dish were collected. Next, the cells were centrifuged at 1000 rpm for 5 min at 4° C. to remove a supernatant. Then, the cells were washed twice with 1 mL of 0.5% FBS/2 mM EDTA/PBS. After that, the cells were suspended in 500 μL of 5% BSA/0.5% FBS/2 mM EDTA/PBS and blocked once for 15 min at 4° C.
Next, 5 μL of an anti-human CD44 monoclonal antibody (Cell Signaling Technology Inc., Danvers, Mass., USA) was added. Then, the cells were suspended and a primary antibody reaction was performed in a dark room for 10 min at 4° C. After that, the cells were washed 3 times with 1 mL of PBS. […] Note that a significant difference was evaluated by using Student's t-test (two-tailed). […]

Wnt/β-catenin signal [2] = assay: Luciferase assay in HuH7 cells stably expressing pTCF4-CMVpro-Luc; assay type: cell-based; settings: HuH7 reporter cells; two days after treatment
Method: First, 30 μg of a pTCF4-CMVpro-Luc was added to 5×10^6 HuH7 cells and the plasmid was introduced using a Cellject Pro (Thermo, Massachusetts, USA) (at 250 V, 1500 μF). Twenty-four hours after the gene introduction, 2 μg/mL of puromycin was added. Then, the cells were selected while a medium was changed every 3 to 5 days. It was observed that colonies of the pTCF4-CMVpro-Luc-containing HuH7 cells were formed at 20 days after initiation of the selection. A cloning ring, which was manufactured such that an end portion of a blue tip was cut, (the bottom edge of the cloning ring was provided with vaseline), was then used to surround one of the colonies formed. Subsequently, 30 μL of a 0.25% Trypsin/1 mM EDTA solution, which was prepared by diluting a stock solution 5-fold with PBS, was added to detach and collect the cells. […]
Next, a luciferase assay was conducted. […] Subsequently, 10 μL of the cell lysate prepared by using PLB in the 24-well plate was added to the tube, and the luciferase activity was measured by using a MiniLumat LB 9506 (Berthold Technologies, Bad Wildbad, German).
First, the HuH7 cells that were at 70 to 90% confluency and stably expressed the pTCF4-CMVpro-Luc were collected, and the 1×10^4 cells were seeded in each well of a 96-well plate (FALCON). […] Then, a fluorescence plate reader Infinite F500 (TECAN, Zurich, Switzerland) was used to measure luciferase activity.

[3] = tested on: CD44-expressing HSC2 cells; assay: Inhibitory effect on cancer stem cells in squamous cell carcinoma (CD44 FACS); assay type: cell-based, human; settings: 5-FU 0.5 μM, IC-2 25 μM, PN-3-13 7.5 μM, HC-1 50 μM, 48 hours, no treatment 83.9%
Method: First, 5×10^5 of HSC2 cells were plated on a 10-cm dish. After 24 hours, the cells were treated with 5-FU (0.5 μM), IC-2 (25 μM), PN-3-13 (7.5 μM), or HC-1 (50 μM). Also, some of the cells were prepared without low-molecular-weight compound treatment (0 μM). After additional 48 hours, the cells were harvested. An anti-human CD44 antibody (Abcam Ltd., Cambridge, UK) was used as a primary antibody and an Alexa 488-labeled goat anti-mouse IgG antibody (Life Technologies Corp., Carlsbad, Calif., USA) was then used. After that, analysis was performed by using a cell sorter, BD bioscience FACS Aria (BD Biosciences, CA, USA). Note that the concentration of each low-molecular-weight compound was determined on the basis of the IC50 concentration at 48 hours in a WST assay.

Wnt/β-catenin signal [4] = settings: induces differentiation of the mesenchymal stem cell into hepatocytes; cited from earlier work

Structure (SMILES)	number of cancer stem cells (CD44-positive cells) [1]	inhibitory effect on a Wnt/β-catenin signal (luciferase activity) (Wnt/β-catenin signal [2])	proportion of CD44-expressing cells [3] [%]	inhibition of a Wnt/β-catenin signal in a mesenchymal stem cell (Wnt/β-catenin signal [4])
O=C1[C@H](Cc2ccccc2)N2C(=O)CCN(C(=O)NCc3ccccc3)[C@H]2CN1Cc1cccc2ccccc12 [IC-2]	significantly less than that of the control	exerted an inhibitory effect	71.4	inhibit a Wnt/β-catenin signal
O=c1[nH]cc(F)c(=O)[nH]1 [5-FU, reference compound]	rather increased the number of cancer stem cells	exerted no inhibitory effect	83.3	–
